Measured values: patent publication EP4631963A1, “PEPTIDE FOR CARTILAGE REGENERATION, AND USES THEREOF” (Caregen Co., Ltd., priority 2022, dated 2024)
Where a SMILES comes first, the peptide text is derived from it. Where no end group is shown, it is not given here.

System: C28/I2, human chondrocyte cell line
Assay: CCK-8 cytotoxicity assay
Assay type: cell-based
Details: C28/I2 cells, different concentrations, 3 days, 450 nm; FIG. 1, FIG. 2
Method: The cytotoxicity of Peptide-1 or Peptide-2 upon addition to human-derived chondrocytes (C28/I2, human chondrocyte cell line) was analyzed using a CCK-8 assay.
Specifically, human-derived chondrocytes were seeded in a 96-well plate at a density of 3 × 10^3 cells/well and cultured in DMEM medium (cat. 11995-065, Gibco) for 24 hours.

| Compound | toxicity in human-derived chondrocytes (CCK-8 activity) |
| --- | --- |
| CC(C)C[C@H](NC(=O)[C@@H](NC(=O)[C@@H](N)CCCNC(=N)N)[C@@H](C)O)C(=O)N[C@@H](CCC(=O)O)C(=O)O [Peptide-2, RTLE] (H-RTLE-OH) | did not exhibit toxicity |
| HHEERY [Peptide-1, HHEERY] | did not exhibit toxicity |
